The text below walks through data of paper PMC9748900, “Unconventional isoquinoline-based SERMs elicit fulvestrant-like transcriptional programs in ER+ breast cancer cells” (NPJ Breast Cancer, 2022).

The test system of experiment [1] is transcriptome of T47D breast cancer cells. The experiment can be described thus: RNA sequencing of T47D cells. The experiment is classed as cell-based. Here is the method:
We next used RNA transcriptomic analysis (RNAseq) to identify differentially affected genes. […] All sequencing runs were performed with three replicates per treatment.
T47D breast cancer cells were grown in 6-well dishes at 50,000 cells per well. […] After 24 h, they were placed in serum-starved media for 48 h. […] RNA was isolated using a Qiagen RNeasy Kit then sent to Novogene for sequencing and bioinformatics analysis.

Experiment [2] deals with gene expression in MCF7:WS8 breast cancer cells. The experiment can be described thus: qPCR gene expression in MCF7:WS8 cells.
Another experiment has as its system SUMO1. The experiment is described as follows: SUMO1 immunofluorescence in T47D cells. The experiment is classed as cell-based. The following applies: 1 µM, 16 h. Here is the method: Immunofluorescence was used to study the effects of these treatments on SUMO1 protein expression in these cells. […] Cellular localization was resolved using phalloidin to stain actin and DAPI to stain nuclei. […] Further studies are needed to decipher the role and estrogen dependence of SUMO1 in ER + breast cancer pathology.
T47D cells were cultured on coverslips for 24 h followed by 48 h growth in serum starved media. […] Cells were fixed for 10 min with 4% paraformaldehyde at room temperature was followed by three washes with ice-cold PBS-T (0.1% Tween 20, PBS) and 10 min of permeabilization with 0.5% saponin in PBS. Blocking was performed with 1% bovine serum albumin (BSA) in PBS-T for 30 min. Cells were incubated in a humidified chamber with 1:500 rabbit monoclonal anti-SUMO1 antibody (Abcam Ltd, Cambridge, UK, ab32058) in 1% BSA for 1 h at room temperature. Cells were washed 3 times with PBS-T, then incubated in the dark for 1 h with 1:1000 goat anti-rabbit IgG H&L (Alexa Fluor® 488) antibody (Abcam Ltd, ab150077) as well as 1:1000 phalloidin-iFluor 594 reagent (Abcam Ltd, ab176757) in 1% BSA. […] Quantification of nuclear fluorescent signal was performed using ImageJ 1.53t software. Fluorescent intensity of all nuclei within captured frames were measured and normalized by subtracting mean background fluorescence of 5 representative areas.

The test system of experiment [3] is Ishikawa endometrial cells. The experiment is described as follows: Alkaline phosphatase (AP) assay in Ishikawa cells. The experiment is classed as cell-based, human. The following applies: 1 nM E2 or 1 μM compound, 72 h, absorbance at 405 nm, mean + std. dev., n = 3-9. The text has this:
SERM enhancement of ERα accumulation in breast cancer cells correlates with uterotrophic activities[22],[30]. Despite the inclusion of side arms from known SERDs, most T6Is appeared SERM-like in breast cancer cells as they increased ERα levels. To measure the SERM-agonist activities of the T6Is, we employed an AP activity assay in Ishikawa endometrial cells[22],[32],[40]. […] Many T6Is show unexpected AP activities in these cells. […] Therefore, we would expect these SERMs to show a greater induction of AP (Supplementary Fig. 5). […] This difference was significant (p = 0.004) compared to 4OHT, which measured 0.68 ± 0.12 absorbance units. In most studies of SERM-agonist activities, AP assays are combined with increases in uterine wet-weight in vivo[22],[41],[42].
AP assays were performed as described. Briefly, 15,000 Ishikawa cells were seeded into 96-well plates then placed in serum-starved medium for 48–72 h. Cells were treated for three days with veh, hormone, SERM, or SERD. The media was aspirated and the cells were frozen at −80 °C for at least 24 h. Cells were thawed then incubated with p-nitrophenyl phosphate (ThermoFisher) chromogenic AP substrate. After 60 min at 40 °C, absorbance was read at 405 nm on a BioTek Cytation 5 plate reader.

Experiment [4] concerns gene expression in T47D breast cancer cells. The experiment can be described thus: qPCR gene expression in T47D cells. The experiment is classed as cell-based. The following applies: 1 μM + 1 nM E2, 16 h.

Consider `C[C@]12CC[C@@H]3c4ccc(O)cc4C[C@@H](CCCCCCCCC[S+]([O-])CCCC(F)(F)C(F)(F)F)[C@H]3[C@@H]1CC[C@@H]2O` (stereo partly shown) [ICI, fulvestrant], for which the “SUMO-related differentially expressed genes (RNAseq)” value in experiment [1] was “upregulated SUMO1 and downregulated the SENP enzymes”. The “Reactome pathways relating to SUMO E3 ligases” value in experiment [1] (1 μM + 1 nM E2) was “significantly enriched”. In addition, in experiment [2] (MCF7:WS8), the “CDK1 mRNA” value is on record as “downregulated its expression”. The “E2F1, CDK1 and SUMO1 mRNA” value in experiment [2] (MCF7:WS8, compared with T47D) was “greater downregulation of E2F1 and CDK1 and upregulation of SUMO1”. Besides, in the experiment on SUMO1, the “SUMO1 protein expression (immunofluorescence)” value is listed as “enriched SUMO1 expression in the nuclei”. In experiment [3], the “AP1 Induction” value is given as 0.25 + 0.08. In experiment [4], the “E2F1 mRNA” value is on record as “reduced impact”.
